The values that follow come from ChEMBL document CHEMBL1141496, “Biphenylsulfonyl-thiophene-carboxamidine inhibitors of the complement component C1s” (Bioorg Med Chem Lett, 2008).

Values after ≈ are worked out from the molar mass of the structure shown.

The target of series [1] is T1, Complement C1s subcomponent (Homo sapiens, UniProt P09871).
T1 sequence (P09871 whole entry): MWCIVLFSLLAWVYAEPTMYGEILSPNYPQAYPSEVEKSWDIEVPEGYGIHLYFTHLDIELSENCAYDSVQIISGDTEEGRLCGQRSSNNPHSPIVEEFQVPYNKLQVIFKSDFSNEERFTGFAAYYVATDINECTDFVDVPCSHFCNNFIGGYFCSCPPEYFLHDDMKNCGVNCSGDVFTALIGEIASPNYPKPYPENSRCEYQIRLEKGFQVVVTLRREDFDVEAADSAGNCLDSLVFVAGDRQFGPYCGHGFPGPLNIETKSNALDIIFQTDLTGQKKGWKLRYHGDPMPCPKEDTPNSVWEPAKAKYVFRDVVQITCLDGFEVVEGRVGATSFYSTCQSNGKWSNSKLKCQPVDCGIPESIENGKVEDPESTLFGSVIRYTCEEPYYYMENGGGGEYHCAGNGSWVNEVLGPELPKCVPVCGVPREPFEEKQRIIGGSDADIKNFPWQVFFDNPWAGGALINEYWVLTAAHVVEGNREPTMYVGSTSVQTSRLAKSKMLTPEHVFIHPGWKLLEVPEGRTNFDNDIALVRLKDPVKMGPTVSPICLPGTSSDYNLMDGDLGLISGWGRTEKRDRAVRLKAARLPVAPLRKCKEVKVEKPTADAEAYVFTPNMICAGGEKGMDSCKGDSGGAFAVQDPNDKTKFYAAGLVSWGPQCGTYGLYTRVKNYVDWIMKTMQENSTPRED
Nature of the series: Inhibition of Complement C1s subcomponent.

Series [2] in a line: Aqueous solubility at physiological pH. The class given is physicochemical.
For another series, the target named is hERG (KCNH2) (Homo sapiens, UniProt Q12809). Nature of the series: Inhibition of human ERG at 10 uM by patch clamp assay.
Series [3] can be described thus: Half life in rat at 2 mg/kg, iv. The class given is ADME, organism-based. Further details: dose 2 mg/kg, route intravenous. Conditions: in vivo.
A short description of series [4]: Volume of distribution in rat at 2 mg/kg, iv. The class given is ADME, organism-based. Further details: dose 2 mg/kg, route intravenous. Particulars: in vivo.
Series [5] can be described thus: Clearance in rat at 2 mg/kg, iv. It counts as ADME, organism-based. Also on record: dose 2 mg/kg, route intravenous. Conditions: in vivo.

Sequence of hERG (KCNH2) (Q12809 whole entry): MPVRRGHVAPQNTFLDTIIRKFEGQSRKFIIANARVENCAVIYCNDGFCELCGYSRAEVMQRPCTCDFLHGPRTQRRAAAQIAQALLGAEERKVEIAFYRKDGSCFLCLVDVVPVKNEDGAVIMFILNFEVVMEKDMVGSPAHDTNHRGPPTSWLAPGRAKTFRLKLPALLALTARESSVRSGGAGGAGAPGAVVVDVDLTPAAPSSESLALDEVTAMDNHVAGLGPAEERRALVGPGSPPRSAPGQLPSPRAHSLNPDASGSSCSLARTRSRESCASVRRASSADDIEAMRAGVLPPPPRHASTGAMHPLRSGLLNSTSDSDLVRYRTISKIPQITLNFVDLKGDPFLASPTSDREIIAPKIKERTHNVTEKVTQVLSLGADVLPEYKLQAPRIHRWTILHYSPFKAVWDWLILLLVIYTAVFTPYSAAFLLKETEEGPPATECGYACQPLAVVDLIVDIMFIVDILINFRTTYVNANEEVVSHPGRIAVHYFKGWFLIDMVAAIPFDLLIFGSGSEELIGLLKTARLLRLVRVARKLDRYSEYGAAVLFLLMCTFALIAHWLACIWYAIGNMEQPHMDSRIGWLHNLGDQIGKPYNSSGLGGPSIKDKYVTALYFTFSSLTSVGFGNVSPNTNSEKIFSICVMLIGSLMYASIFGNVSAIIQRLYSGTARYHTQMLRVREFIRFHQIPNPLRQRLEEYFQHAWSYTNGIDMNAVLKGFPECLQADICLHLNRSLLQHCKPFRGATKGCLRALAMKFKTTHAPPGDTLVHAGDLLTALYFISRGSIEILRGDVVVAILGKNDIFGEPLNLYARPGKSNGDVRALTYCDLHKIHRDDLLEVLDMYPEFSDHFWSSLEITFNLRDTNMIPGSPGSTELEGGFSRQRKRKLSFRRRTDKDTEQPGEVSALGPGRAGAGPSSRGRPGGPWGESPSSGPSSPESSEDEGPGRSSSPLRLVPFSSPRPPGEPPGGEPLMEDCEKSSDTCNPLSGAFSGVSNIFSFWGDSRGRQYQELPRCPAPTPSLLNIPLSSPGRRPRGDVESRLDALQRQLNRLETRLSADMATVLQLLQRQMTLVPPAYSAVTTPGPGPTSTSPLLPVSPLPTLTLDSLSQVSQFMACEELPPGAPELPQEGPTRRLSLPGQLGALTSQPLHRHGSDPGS

In series [1], `CSc1sc(C(=N)N)cc1S(=O)(=O)c1cccc(Br)c1` yielded a Ki of 360 nM. Still for that read-out and setting: then `CSc1sc(C(=N)N)cc1S(=O)(=O)c1cccc(-c2ccccc2CO)c1`, with 120 nM; and `CSc1sc(C(=N)N)cc1S(=O)(=O)c1cccc(-c2c(C)cccc2CO)c1`, with 50 nM; and `CSc1sc(C(=N)N)cc1S(=O)(=O)c1cccc(-c2ccc(O)cc2)c1`, with 190 nM.

For `COc1cccc(-c2cccc(S(=O)(=O)c3cc(C(=N)N)sc3SC)c2)c1`, the Ki in series [1] turned out to be 490 nM.

On to `CSc1sc(C(=N)N)cc1S(=O)(=O)c1cccc(-c2c(C)cccc2NC(=O)NCCCCCC(=O)O)c1`, for which the Ki in series [1] stood at 22 nM. The compound also yielded a solubility in series [2] of 39 µM (≈ 22.4 µg/mL). Further, the inhibition at 10 µM on hERG (KCNH2) was 5.8%. Further, the half-life in series [3] is 12 min. This compound returned a Vd in series [4] of 2.65 L/kg. In addition, the clearance in series [5] turned out to be 228 mL/min/kg.

Regarding `CSc1sc(C(=N)N)cc1S(=O)(=O)c1cccc(-c2c(C)cccc2NC(=O)CCCS(C)(=O)=O)c1`, affinity in series [1] was put at a Ki of 14 nM. In addition, the solubility in series [2] was determined as 35 µM (≈ 19.8 µg/mL). The half-life in series [3] is 108 min. Also, the distribution volume (Vd) in series [4] was 2.03 L/kg. In addition, the clearance in series [5] turned out to be 130 mL/min/kg. `CSc1sc(C(=N)N)cc1S(=O)(=O)c1cccc(-c2c(C)cccc2NC(=O)CS(C)(=O)=O)c1` yielded an inhibition constant Ki in series [1] of 120 nM. Further, the concentration in solution in series [2] (solubility) was 43 µM (≈ 23.1 µg/mL). For the compound `CSc1sc(C(=N)N)cc1S(=O)(=O)c1cccc(-c2ccccc2C)c1`, in series [1], the Ki was 30 nM.

In turn, `CSc1sc(C(=N)N)cc1S(=O)(=O)c1cccc(-c2ccccc2O)c1` gave a Ki in series [1] of 460 nM. Same read-out and setting: then `CSc1sc(C(=N)N)cc1S(=O)(=O)c1cccc(-c2ccc(C)cc2)c1`, with 250 nM. `CSc1sc(C(=N)N)cc1S(=O)(=O)c1cccc(-c2ccccc2)c1` yielded a Ki in series [1] of 260 nM. Consider `C=Cc1ccccc1-c1cccc(S(=O)(=O)c2cc(C(=N)N)sc2SC)c1`, for which, in series [1], the Ki worked out at 140 nM. Still for that read-out and setting: then `COc1ccccc1-c1cccc(S(=O)(=O)c2cc(C(=N)N)sc2SC)c1`, with 610 nM. In series [1], `CSc1sc(C(=N)N)cc1S(=O)(=O)c1cccc(-c2ccccc2Cl)c1` showed an inhibitory constant (Ki) of 40 nM. Same read-out and setting: then `CSc1sc(C(=N)N)cc1S(=O)(=O)c1cccc(-c2c(C)cccc2N)c1`, with 20 nM.

The compound `CSc1sc(C(=N)N)cc1S(=O)(=O)c1cccc(-c2cccc(C)n2)c1` showed a Ki in series [1] of 40 nM. In addition, the solubility in series [2] was found to be 22 µM (≈ 8.88 µg/mL). The compound also registered an inhibition at 10 µM against hERG (KCNH2) of 66%. The half-life in series [3] was 120 min. This compound also yielded a volume of distribution (Vd) in series [4] of 15 L/kg. This compound also showed a clearance in series [5] of 283 mL/min/kg. In series [1], `CSc1sc(C(=N)N)cc1S(=O)(=O)c1cccc(-c2cccc(O)c2)c1` yielded an inhibition constant (Ki) of 150 nM. Still for that read-out and setting: then `CSc1sc(C(=N)N)cc1S(=O)(=O)c1cccc(-c2cccc(C)c2)c1`, with 1850 nM.

Compound `CSc1sc(C(=N)N)cc1S(=O)(=O)c1cccc(-c2c(C)cccc2NC(=O)NCCc2nn[nH]n2)c1` had an inhibition constant (Ki) in series [1] of 64 nM. The inhibition at 10 µM against hERG (KCNH2) turned out to be 1%. For the compound `CSc1sc(C(=N)N)cc1S(=O)(=O)c1cccc(-c2c(C)cccc2C(=O)O)c1`, affinity in series [1] was put at a Ki of 150 nM. For `CSc1sc(C(=N)N)cc1S(=O)(=O)c1cccc(-c2c(C)cccc2NC(=O)CCCCC(=O)O)c1`, the inhibition constant Ki in series [1] worked out at 42 nM. In addition, the concentration in solution in series [2] (solubility) came to 40 µM (≈ 21.8 µg/mL).

In series [1], `COc1ccc(-c2cccc(S(=O)(=O)c3cc(C(=N)N)sc3SC)c2)cc1` displayed a Ki of 350 nM.
